Data as given in publication PMC12398837 (Journal of Pharmaceutical Analysis, 2025).
Where a name gives a salt, the structure may show the parent alone. Read-outs that look alike come from different tables or passages of the source.

Assays:
hDAT = target: T1, hDAT (Homo sapiens, UniProt Q01959); experiment: Neurotransmitter Transporter Uptake Assay Kit, DA reuptake inhibition; assay type: cell-based; details: Table 1; inhibition of dopamine reuptake, reduction of RFU
T1 construct: expressed in transfected cells; host or cells: HEK-293T (HEK293T), stably transfected
Method: DA uptake activity was measured using a Neurotransmitter Transporter Uptake Assay Kit (Molecular Devices, San Jose, CA, USA). […] 2-[4-(2-hydroxyethyl)-1-piperazinyl] ethanesulfonic acid (HEPES) buffer solution (150 mM NaCl, 5 mM KCl, 10 mM glucose, 2 mM CaCl2, 1 mM MgCl2, 10 mM HEPES, pH 7.4) was used to wash cells three times before the experiment. Cells in the experimental group were treated with six different compounds. After 15 min, the dye solution was added and the fluorescence intensity was measured for 30 min in the 520 nm range with excitation at 440 nm. The inhibition percentages were calculated using the end point measurements at 30 min. The four-parameter logistic nonlinear regression model was used to determine the half maximal inhibitory concentration (IC50) values.
The DA reuptake inhibitory activities of the six repurposed drugs were evaluated using the Neurotransmitter Transporter Uptake Assay Kit through dose-response assays. This assay employs a novel fluorescent indicator dye designed to mimic neurotransmitters, along with a masking dye to quench extracellular fluorescence, enabling precise measurement of transporter-mediated uptake activity.

[1] = cited from earlier work

T1 sequence (Q01959 whole entry): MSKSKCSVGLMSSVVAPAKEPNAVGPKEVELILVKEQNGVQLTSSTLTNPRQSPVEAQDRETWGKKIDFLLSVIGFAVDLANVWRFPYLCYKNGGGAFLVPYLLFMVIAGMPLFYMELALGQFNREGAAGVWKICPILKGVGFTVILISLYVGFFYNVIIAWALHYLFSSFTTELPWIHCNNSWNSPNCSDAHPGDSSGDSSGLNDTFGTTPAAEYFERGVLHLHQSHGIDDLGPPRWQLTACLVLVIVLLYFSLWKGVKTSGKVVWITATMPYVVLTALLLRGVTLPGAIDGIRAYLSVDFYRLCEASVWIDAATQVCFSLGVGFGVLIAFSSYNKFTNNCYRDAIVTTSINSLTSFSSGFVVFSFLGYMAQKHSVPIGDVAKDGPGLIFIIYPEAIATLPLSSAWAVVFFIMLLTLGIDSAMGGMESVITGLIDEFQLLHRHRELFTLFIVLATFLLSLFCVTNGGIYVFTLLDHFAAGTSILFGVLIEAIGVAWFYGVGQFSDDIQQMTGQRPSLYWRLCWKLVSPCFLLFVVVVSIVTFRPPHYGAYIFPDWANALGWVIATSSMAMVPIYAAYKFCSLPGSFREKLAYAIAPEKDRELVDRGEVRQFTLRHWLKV

Structure (SMILES)	IC50 (hDAT)	CNS and cardiac toxicity ([1]; previous research)	metabolism ([1]; restricts application to peripheral nerve blockade)	CNS and cardiac toxicity ([1]; particularly under acidosis and hyperkalemia)
CCCN1CCCC[C@H]1C(=O)Nc1c(C)cccc1C [Compound 4, Ropivacaine]	753 nM	mild CNS and cardiac toxicity		
Cc1cccc(C)c1NC(=O)C1CCCCN1C (stereo not drawn) [Compound 14, Mepivacaine hydrochloride]	542 nM		rapid metabolism	
CCCCN1CCCC[C@H]1C(=O)Nc1c(C)cccc1C [Compound 19, Levobupivacaine]	1210 nM			mild CNS and cardiac toxicity
